Where “and” joins values, the source holds several entries; their conditions need not be identical. Equal values may be shown once. Read-outs that look alike come from different tables or passages of the source.
Tests used:
EZH2 = system: EZH2; set-up: method as in PMID 23023262; settings: EZH2 over EZH1 ref 52; cited from earlier work
SIRT7 [1] = biological target: T1, SIRT7 (Homo sapiens, UniProt Q9NRC8); experiment: Surface plasmon resonance (SPR) binding assay
T1 construct: His-tagged full length SIRT7 protein expression from BL21 bacterial cells; His; made in house; host or cells: E. coli BL21
T1 sequence (Q9NRC8 1-400): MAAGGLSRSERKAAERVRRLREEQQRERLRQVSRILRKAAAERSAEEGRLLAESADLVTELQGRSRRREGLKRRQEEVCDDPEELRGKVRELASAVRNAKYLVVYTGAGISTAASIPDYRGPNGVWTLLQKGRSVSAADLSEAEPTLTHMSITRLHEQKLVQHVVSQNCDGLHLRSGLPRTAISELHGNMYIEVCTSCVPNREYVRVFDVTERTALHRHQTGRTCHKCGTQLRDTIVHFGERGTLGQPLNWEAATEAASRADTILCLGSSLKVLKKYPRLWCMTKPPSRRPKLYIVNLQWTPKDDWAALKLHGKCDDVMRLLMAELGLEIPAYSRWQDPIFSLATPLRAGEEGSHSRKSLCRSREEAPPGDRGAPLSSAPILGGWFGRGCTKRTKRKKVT
Method: All SPR measurements were performed on Biacore T200 instrument (GE Healthcare) with running buffer (PBS+5% DMSO) at room temperature. The bacterially purified His-SIRT7 was covalently immobilized onto Series S Sensor Chip CM5 by a standard amino-coupling procedure in 10 mM sodium acetate (pH 5.5). Two-fold serial dilutions of YZL-51N or NAD^+ in 5% DMSO passed through the sensor chip at 30 μL/min for 120 s, followed by 240 s of dissociation flow. The KD value was calculated based on the concentration dependence of the observed steady-state response using Biacore T200 Evaluation software Version 1.0 (GE Healthcare).

SIRT7 [2] = biological target: T1, SIRT7; experiment: Fluor de Lys (FDL) SIRT7 deacetylase assay; type: biochemical; settings: for IC50: 0.5 mM NAD+, read-out: FDL assay SIRT7 inhibition IC50; for inhibition at 50 µM: 50 μM compound, 37°C, 90 min; for Dose-dependent inhibition of SIRT7: FDL assay, Figure S5
Source text: To assess SIRT7 deacetylase activity using Fluor de Lys (FDL) assays, the peptide […]∗QLAGGK was synthesized and characterized as a substrate using fluorophore 7-methoxycoumarin-4-acetic acid (∗, MCA) (Figures 1A, S1A, and S1B). In the presence of both SIRT7 and NAD^+, a luminescence response was detected in the linear range (y = 31.88x + 2396, R^2 = 0.9742) (Figure 1B). We screened our preserved library of 242 natural products to find potential SIRT7 inhibitors.
For in vitro analysis of SIRT7 deacetylation, the reaction system contained 10 μg His-SIRT7, 0.5 mM NAD^+, 10 μM […](MCA)QLAGGK (synthesized by QYAOBIO; details in the supplementary files), 50 μM potential compound or 3 mM NAM, and assay buffer (10 mM Tris-HCl pH 8.0, 4 mM MgCl2, 0.2 mM DTT and 10% Glycerol). The deacetylation reactions were incubated at 37°C for 90 min. The fluorescence intensity was measured with a microplate reader (Synergy H4 Hybrid Reader, Biotek) at an excitation wavelength of 260 nm and detected at an emission spectrum of 300–600 nm. The IC50 values were calculated at 450 nm emission by GraphPad Prism 8.

SIRT7 [3] = biological target: T1, SIRT7; experiment: Fluor de Lys (FDL) SIRT7 deacetylase assay; type: biochemical; settings: 2 mM NAM treatment
SIRT7 [4] = biological target: T1, SIRT7; experiment: Dot blot assay of SIRT7-mediated H3K18ac peptide deacetylation; type: biochemical; settings: for Rescue of H3K18 acetylation: dot blot screening, 50 μM; for EC50: read-out: Dot blot assay H3K18ac rescue EC50
Source text: To avoid the bias of the fluorescence assay, we also performed dot blot assays for the effects of natural compounds on SIRT7-mediated deacetylation of H3K18ac peptides in vitro (Figures S2A and S2B). In this system, SIRT7 mediated a dose-dependent deacetylation of H3K18ac (Figure 1D). […] Based on comparisons of all the candidates, we selected YZL-51N as the best for further investigation (Figure 1F). […] Thus, P. americana derived YZL-51N was confirmed as an identified SIRT7 inhibitor using parallel peptide-based screening platforms.
For dot blot assays, the reaction system containing 10 μg His-SIRT7, 0.5 mM NAD^+, 10 μM biotin-H3K18ac peptides and 50 μM potential compound was mixed and incubated at 37°C for 90 min. Samples were transferred to a polyvinylidene difluoride (PVDF) membrane, and then blocked with 5% skimmed milk. The blots were probed with H3K18ac primary antibody at RT for 2 h and then incubated with secondary antibody at RT for 1h. The bands were visualized using ECL substrates (Thermo Fisher, USA) on Tanon 5200SF Imaging System.

Method for HCT116 cells: Cells were seeded into 96 well plates (4,000 cells/well). […] The cells were then washed and re-cultured in fresh medium for 48 h. […] Formazan were generated by the addition of 100 μL DMSO and shaking for 30 min. The absorbance of samples was measured at 570 nm using a microtiter plate reader (BioTek).

Which “Selectivity against EZH1” value (EZH2) does the source give for `Cc1cc(C)c(CNC(=O)c2cc(-c3ccc(CN4CCOCC4)cc3)cc3c2cnn3C2CCCC2)c(=O)[nH]1` [EPZ005687] here?
Its value is 50 fold.

Which “Weaker affinity to SIRT7 than YZL-51N” value (SIRT7 [1]) does the source give for `NC(=O)c1ccc[n+]([C@@H]2O[C@H](COP(=O)([O-])OP(=O)(O)OC[C@H]3O[C@@H](n4cnc5c(N)ncnc54)[C@H](O)[C@@H]3O)[C@@H](O)[C@H]2O)c1` [NAD^+] here?
Its value is 200 fold.

What about the Kd (SIRT7 [1]; immobilized His-SIRT7) of the same compound?
Its Kd is > 200 µM.

With `NC(=O)c1cccnc1` [NAM, nicotinamide, reference compound] as the compound, how does the IC50 (SIRT7 [2]; 0-30 mM NAM) read?
Its IC50 is 2290 µM and ~2290 µM.

What about the inhibition at 2000 µM (SIRT7 [3]) of the same compound?
Its inhibition at 2000 µM is 44.4%.

For `COc1ccc(C(C)=O)cc1OC` [compound 1], which inhibition at 50 µM (SIRT7 [2]) is on record?
The inhibition at 50 µM was 47.5%.

And the “Dose-dependent inhibition of SIRT7” value (SIRT7 [2])?
Its value is “did not show a dose-dependent inhibition”.

Which inhibition at 50 µM (SIRT7 [2]) does the source give for `COC(=O)/C(=C\C(=O)c1ccc(OC)c(OC)c1)c1ccc(OC)c(OC)c1` [compound 6] here?
Its inhibition at 50 µM is 12.3%.

And the “Rescue of H3K18 acetylation” value (SIRT7 [4])?
The value was “rescued H3K18 acetylation”.

What about the EC50 (SIRT7 [4]) of the same compound?
Its EC50 is 70.2 µM.

What does the source list for `O=C(O)/C(=C\C(=O)c1ccc(O)c(O)c1)c1ccc(O)c(O)c1` [compound 7]?
inhibition at 50 µM (SIRT7 [2]): 52.7%; IC50 (SIRT7 [2]; 10 μM peptide): > 30 µM; Dose-dependent inhibition of SIRT7 (SIRT7 [2]): did not show a dose-dependent inhibition; Rescue of H3K18 acetylation (SIRT7 [4]): rescued H3K18 acetylation; EC50 (SIRT7 [4]): 32 µM

What does the source list for `COc1cc([C@@H]2c3cc4c(cc3[C@@H](O[C@@H]3O[C@@H]5CO[C@@H](C)O[C@H]5[C@H](O)[C@H]3O)[C@H]3COC(=O)[C@H]23)OCO4)cc(OC)c1O` [etoposide, reference compound]?
Cell proliferation (%, Mean ± SD) (HCT116 cells; single agent 5 μM): 92.7 ± 4.1%; Cell proliferation (%, Mean ± SD) (HCT116 cells; single agent 10 μM): 82.5 ± 6.0%; Cell proliferation (%, Mean ± SD) (HCT116 cells; single agent 20 μM): 73.5 ± 6.0%; Cell proliferation (%, Mean ± SD) (HCT116 cells; single agent 40 μM): 48.5 ± 2.4%; Cell proliferation (%, Mean ± SD) (HCT116 cells; single agent 80 μM): 27.0 ± 1.9%
